The numbers were not newly measured in US6200975A, “Substituted 1,2,4-triazolo[3,4-a]phthalazine derivatives as GABA alpha 5 ligands” (Merck Sharp & Dohme Limited, priority 1997, dated 2001), which cites them from elsewhere.

The conditions of the series: reported by McNamara and Skelton.

As for `COC(=O)c1cc2c(cn1)[nH]c1ccccc12` [β-CCM], the “spatial learning in the Morris watermaze” value is listed as “enhanced spatial learning”.
